The text below walks through data of US20190153024A1, “NOVEL SALTS AND POLYMORPHS OF SCY-078” (priority 2015, published 2019).

Series [1] in a line: Dynamic Vapor Sorption (DVS) water uptake. It counts as physicochemical. The note with it: for solid form by XRPD after DVS: after DVS experiment. The protocol:
Dynamic Vapor Sorption (DVS)—The term “DVS” means the procedure described in below. The relative humidity at 25° C. was calibrated against deliquescence point of LiCl, Mg(NO3)2 and KCl.
The DVS of SCY-078 salts were tested according to the above method, using a 10-20 mg sample size. The DVS was measured using a Surface Measurement Systems (SMS) DVS Intrinsic.

The nature of series [2]: Kinetic solubility of trifluoroacetate Types A and B and HCl Type I (alternative procedure: SGF, FaSSIF and FeSSIF alternative media, acetate pH 5.5, phosphate pH 6.0 alternative media). As to conditions: for Form change: residual solid by XRPD. The protocol:
An alternative media (“FaSSIF alternative media”) was used to study the trifluoroacetate salts (Type A and B) and the HCl Type I salt. More specifically, the media was prepared by weighing 0.17 g of sodium phosphate monobasic (NaH2PO4, anhydrous), 0.021 g of sodium hydroxide, and 0.31 g of sodium chloride into a 50-mL volumetric flask and was dissolve with approximately 48 mL of purified water. The pH was adjusted to exactly 6.5 using 1 M HCl or 1 M NaOH and diluted to volume with purified water. 0.11 g of SIF powder was then added, stirred and sonicated until all the powder was completely dissolved. The solution was equilibrated for 2 hours at RT before use. The solution can be stored at RT for 48 hours or 4° C. for 7 days and should be equilibrated to RT before use
An alternative media (“FeSSIF alternative media”) was used to study the trifluoroacetate salts (Type A and B) and the HCl Type I salt. More specifically, the media was prepared by transferring 0.41 mL of glacial acid and weighing 0.20 g of sodium hydroxide, 0.59 g of sodium chloride into a 50-mL volumetric flask. This was dissolved with approximately 48 mL of purified water. The pH was adjusted to exactly 5.0 using 1 M HCl or 1 M NaOH and diluted to volume with purified water. 0.56 g of SIF powder was added, stirred and sonicated until all the powder is completely dissolved. The solution can be stored at RT for 48 hours or 4° C. for 7 days and should be equilibrated to RT before use.
Acetate Buffer (pH 5.5) Preparation—The acetate buffer (pH 5.5) used for the trifluoroacetate salts (Type A and B) and the HCl Type I salt was prepared by placing 0.60 g sodium acetate (NaC2H3O2.3H2O) in a 100-mL volumetric flask, adding 3 mL of 2 M acetic acid solution, and then adding purified water to volume.
An alternative media (“phosphate (pH 6.0) alternative media”) was used to study the trifluoroacetate salts (Type A and B) and the HCl Type I salt. More specifically, the media was prepared by dissolving 2.72 g of 0.2 M monobasic potassium phosphate (KH2PO4) in purified water, and diluting with purified water t 100 mL. 0.8 g of 0.2 M sodium hydroxide in purified water was diluted with purified water to 100 mL. Then 50 mL of the 0.2 M monobasic potassium phosphate solution was placed in a 200-mL volumetric flask, 5.6 mL of 0.2 M sodium hydroxide solution was added, and then purified water was added to volume.
The trifluoroacetate salts (Type A and B) and the HCl Type I salt were tested using the following alternative procedure. First, 15 mg, 36 mg or 90 mg solid was weighted into a 4-mL plastic tube, and 3 mL of relevant media was added before leaving the suspension on a rolling incubator (25 r/min). For SCF, 90 mg of solid was used. For FaSSIF, acetate buffer (pH 5.5), and phosphate buffer (pH 6.0), 15 mg solid was used. For FeSSIF, 36 mg of solid was used. 1.0 mL aliquot of the suspension was sampled for centrifugation with the supernatant submitted for HPLC and pH measurement and solid for XRPD characterization at 1 hr, 4 hr and/or 24 hrs.
The solubility of trifluoroacetate Type A, Type B and HCl Type I was measured in SGF at ambient temperature. Approximately 90 mg of solid sample was weighted into a 4-mL centrifuge tube, and 3 mL of SGF buffer was added before leaving the suspension on a rolling incubator (25 r/min). 1.0 mL aliquot of the suspension was sampled for centrifugation (10000 rpm, 3 mins) the supernatant was analyzed by HPLC and pH measurement and solid by XRPD characterization at 1 hr, 4 hr and 24 hrs, respectively.
The solubility of trifluoroacetate Type A, Type B and hydrochloride Type I was measured in the FaSSIF alternative media at ambient temperature. Approximately 15 mg of solid sample was weighted into a 4-mL plastic tube, and 3 mL of the media was added before leaving the suspension on a rolling incubator (25 r/min).

A short description of series [3]: Physical and chemical stability of trifluoroacetate Types A and B and HCl Type I for 1, 2, 4 and 8 weeks. It counts as physicochemical. The note with it: for physical and chemical stability: 25° C./60% RH, 40° C./75% RH and 60° C. The protocol: High Power Liquid Chromatography (HPLC) Method—An Agilent 1260 HPLC with DAD detector was utilized to test solubility or to test purity and stability. […] System suitability was tested by injecting standard solutions five times in each sample sequence, and the relative standard deviation of the peak areas was less than 2%.
Physical and chemical stability evaluation of trifluoroacetate Type A, trifluoroacetate Type B, and HCl Type I was performed at 25° C./60% RH, 40° C./75% RH and 60° C. for 1, 2, 4 and 8 weeks. In the experiments, approximately 20 mg of solid was placed into a 1.5-mL glass vial. The vials were stored under 25° C./60% RH (uncapped), 40° C./75% RH (uncapped) and 60° C. (capped) conditions for 8 weeks. XRPD analysis was then employed to check the crystalline form of the solid, and HPLC was utilized to determine the purity profile at 1, 2, 4 and 8 weeks. […] The solid form change of trifluoroacetate Type A at 2 and 4 weeks was postulated to the air-exposure when the sample was taken out for XRPD characterization.

Series [4] is described as follows: Chemical and physical stability of SCY-078 salts on storage (25° C./60% RH, 40° C./75% RH, 60° C.). As to conditions: Type M 4 days, Type S 1 week. It counts as physicochemical. From the text:
For all compounds tested other than the trifluoroacetate salts (Type A and B) and the HCl Type I and II salts, the conditions and parameters used for measuring solubility are shown in Table 2A and for measuring stability are showing in Table 3A. The conditions and parameters used for the solubility of the trifluoroacetate salts (Type A and B) and the HCl Type I and II salts are shown in Table 2B and for stability are shown in Table 3B.

Where [5] appears, read: 25° C./60% RH (uncapped), 1 week.
[6] abbreviates: 25° C./60% RH (uncapped), 2 weeks.
[7] abbreviates: 25° C./60% RH (uncapped), 4 weeks.
[8] abbreviates: 25° C./60% RH (uncapped), 8 weeks.
Where [9] appears, read: 40° C./75% RH (uncapped), 1 week.
The mark [10] stands for this setting: 40° C./75% RH (uncapped), 2 weeks.
The mark [11] stands for this setting: 40° C./75% RH (uncapped), 4 weeks.
Setting [12] is: 40° C./75% RH (uncapped), 8 weeks.

Each structure is given as a SMILES string.

On to `CC(C)[C@@H](C)[C@@]1(C)CC[C@]2(C)[C@H]3CC[C@@H]4[C@@]5(COC[C@]4(C)[C@@H](OC[C@](C)(N)C(C)(C)C)[C@H](n4ncnc4-c4ccncc4)C5)C3=CC[C@@]2(C)[C@@H]1C(=O)O.Cl` [SCY-078 HCl Type I], for which the “water uptake (DVS)” value in series [1] (25° C./80% RH) stood at 6.1 wt %. In addition, in series [1], the “solid form by XRPD after DVS” value is listed as “No form change”. Further, the Form change entry in series [2] (FaSSIF alternative media, 1 hr) was “No”; in series [2] (FaSSIF alternative media, 4 hrs), “No”; in series [2] (FaSSIF alternative media, 24 hrs), “No”; in series [2] (FeSSIF alternative media, 1 hr), “No”; in series [2] (FeSSIF alternative media, 4 hrs), “No”; in series [2] (FeSSIF alternative media, 24 hrs) it was “No”. In addition, the Form change result in series [2] (SGF, 1 hr) was “No”; in series [2] (SGF, 4 hrs) it was “No”; in series [2] (SGF, 24 hrs), “No”; in series [2] (phosphate (pH 6.0) alternative media, 4 hrs), “No”; in series [2] (phosphate (pH 6.0) alternative media, 24 hrs), “No”. In addition, in series [2] (FaSSIF alternative media, ambient temperature), the “form change of residual solid in FaSSIF alternative media” value is on record as “no form change was observed”. Besides, in series [2] (FeSSIF alternative media, ambient temperature), the “form change of residual solid in FeSSIF alternative media” value was “no form change was observed”. Moreover, the “form change of residual solid in SGF” value in series [2] (SGF, ambient temperature) is listed as “no form change was observed”. For the same molecule, in series [2] (acetate buffer pH 5.5, ambient temperature), the “form change of residual solid in acetate buffer” value is given as “converted to Type II”. Further, the “solubility in acetate buffer (comparison)” value in series [2] (acetate buffer pH 5.5, ambient temperature, 4 hr and 24 hrs) was “lower solubility”. For the same molecule, the “form change of residual solid in phosphate (pH 6.0) alternative media” value in series [2] (phosphate (pH 6.0) alternative media, ambient temperature) is on record as “No form change was observed”. Further, the “solubility in phosphate (pH 6.0) alternative media (comparison)” value in series [2] (phosphate (pH 6.0) alternative media, ambient temperature, 4 hr and 24 hrs) is reported as “higher solubility”. In addition, the HPLC purity in series [3] (setting [5]), in series [3] (setting [6]), in series [3] (setting [7]), in series [3] (setting [8]), in series [3] (setting [9]) and in series [3] (setting [10]) was 99.9% each time. Moreover, the HPLC purity in series [3] (setting [11]) is 99.9%; in series [3] (setting [12]) it was 99.9%; in series [3] (60° C. (capped), 1 week), 99.9%; in series [3] (60° C. (capped), 2 weeks), 99.9%; in series [3] (60° C. (capped), 4 weeks), 99.9%; in series [3] (60° C. (capped), 8 weeks) it was 99.9%. Moreover, the Solid form result in series [3] (setting [5]), in series [3] (setting [6]), in series [3] (setting [7]), in series [3] (setting [8]), in series [3] (setting [9]) and in series [3] (setting [10]) was “Type I” each time. Besides, the Solid form result is “Type I” in series [3] (setting [11]); “Type I” in series [3] (setting [12]); “Type I” in series [3] (60° C. (capped), 1 week); “Type I” in series [3] (60° C. (capped), 2 weeks); “Type I” in series [3] (60° C. (capped), 4 weeks); “Type I” in series [3] (60° C. (capped), 8 weeks). The “physical and chemical stability” value in series [3] (8 weeks) is “physically and chemically stable”. For the same molecule, the “Initial HPLC purity” value in series [3] (Initial) stood at 99.9%.
For the molecule `CC(C)[C@@H](C)[C@@]1(C)CC[C@]2(C)[C@H]3CC[C@@H]4[C@@]5(COC[C@]4(C)[C@@H](OC[C@](C)(N)C(C)(C)C)[C@H](n4ncnc4-c4ccncc4)C5)C3=CC[C@@]2(C)[C@@H]1C(=O)O.O=C(O)CC(O)(CC(=O)O)C(=O)O` [SCY-078 citrate Type M], in series [1] (25° C., 80% RH), the “water uptake (DVS)” value amounted to 11.0%. Moreover, the “solid form by XRPD after DVS” value in series [1] is on record as “converts to partially amorphous”. Moreover, the “physical and chemical stability” value is “impurity of SCY-078 citrate Type M increased” in series [4] (closed dish 60° C.); “physically and chemically stable” in series [4] (open dish 25° C., 60% RH); “One diffraction peak change and partial crystallinity loss” in series [4] (open dish 40° C., 75% RH).
Regarding `CC(C)[C@@H](C)[C@@]1(C)CC[C@]2(C)[C@H]3CC[C@@H]4[C@@]5(COC[C@]4(C)[C@@H](OC[C@](C)(N)C(C)(C)C)[C@H](n4ncnc4-c4ccncc4)C5)C3=CC[C@@]2(C)[C@@H]1C(=O)O.O=C(O)C(F)(F)F` [SCY-078 Trifluoroacetate Type B], the “water uptake (DVS)” value in series [1] (25° C./80% RH) came to 3.4 wt %. Also, the “solid form by XRPD after DVS” value in series [1] was “converted to Type A”. Besides, the “form change of residual solid in FaSSIF alternative media” value in series [2] (FaSSIF alternative media, ambient temperature, listed as Trifluoroacetate Type B) is listed as “converted to Type A”. Further, the “form change of residual solid in FeSSIF alternative media” value in series [2] (FeSSIF alternative media, ambient temperature, listed as trifluoroacetate Type B) is “no form change was observed”. The “form change of residual solid in SGF” value in series [2] (SGF, ambient temperature, listed as Trifluoroacetate Type B) is on record as “converted to Type A”. For the same molecule, the “form change of residual solid in acetate buffer” value in series [2] (acetate buffer pH 5.5, ambient temperature, listed as trifluoroacetate Type B) is listed as “converted to Type A”. For the same molecule, the “form change of residual solid in phosphate (pH 6.0) alternative media” value in series [2] (phosphate (pH 6.0) alternative media, ambient temperature, listed as trifluoroacetate Type B) was “converted to Type A at 24 hrs”. Also, the “physical and chemical stability” value in series [3] (8 weeks, listed as Trifluoroacetate Type B) was “chemically stable, however, physically unstable”.
